Legend:
[1] = refractive index (Na D-line) (dimensionless); conditions: 101.33 kPa, Liquid
[2] = for viscosity / mass density: 101 kPa, Liquid; for viscosity: Capillary tube (Ostwald / Ubbelohde) method; for mass density: Vibrating tube method
[3] = xn = mol fraction of the nth substance listed; conditions: x1 = 1; for viscosity / mass density: 101 kPa, Liquid; for viscosity: Capillary tube (Ostwald / Ubbelohde) method; for mass density: Vibrating tube method
[4] = refractive index (Na D-line) (dimensionless); xn = mol fraction of the nth substance listed; conditions: 101 kPa, Liquid, x1 = 1

CCCCCCCCCCCC [dodecane]
Conditions	mass density, [2] [kg/m3]	refractive index, [1]	surface tension liquid-gas, [2] [mN/m]	viscosity, [2] [mPa·s]
293.15 K	748.6	1.4219	24.07	1.507
298.15 K	745	–	–	1.377
303.15 K	741.4	1.4168	23.67	1.266
313.15 K	734.1	–	–	1.084

CCCCCCCCCCCC [dodecane] + C1C[C@@H]2[C@H]3CC[C@H](C3)[C@@H]2C1
Conditions	mass density, [3] [kg/m3]	refractive index, [4]	surface tension liquid-gas, [3] [mN/m]	viscosity, [3] [mPa·s]
293.15 K	748.6	1.4219	24.07	1.507
298.15 K	745	–	–	1.377
303.15 K	741.4	1.4168	23.67	1.266
313.15 K	734.1	–	–	1.084

C1C[C@@H]2[C@H]3CC[C@H](C3)[C@@H]2C1 [exo-tetrahydrodicyclopentadiene]
Conditions	mass density, 293.15 K [kg/m3]	mass density, 298.15 K [kg/m3]	mass density, 303.15 K [kg/m3]	mass density, 313.15 K [kg/m3]	refractive index, 293.15 K	refractive index, 303.15 K	viscosity, 293.15 K [mPa·s]	viscosity, 298.15 K [mPa·s]	viscosity, 303.15 K [mPa·s]	viscosity, 313.15 K [mPa·s]
[1]	–	–	–	–	1.4877	1.4832	–	–	–	–
[2]	935.3	931.4	927.5	919.6	–	–	3.077	2.784	2.525	2.112

[2], Capillary rise
Conditions	surface tension liquid-gas [mN/m]
293.15 K	31.86
303.15 K	31.09

CCCCCCCCC [nonane]
Conditions	mass density, 293.15 K [kg/m3]	mass density, 298.15 K [kg/m3]	mass density, 303.15 K [kg/m3]	mass density, 313.15 K [kg/m3]	refractive index, 293.15 K	refractive index, 303.15 K	viscosity, 293.15 K [mPa·s]	viscosity, 298.15 K [mPa·s]	viscosity, 303.15 K [mPa·s]	viscosity, 313.15 K [mPa·s]
[1]	–	–	–	–	1.4048	1.4001	–	–	–	–
[2]	717.8	713.9	710	702.1	–	–	0.733	0.687	0.647	0.579

[2], Capillary rise
Conditions	surface tension liquid-gas [mN/m]
293.15 K	22.2
303.15 K	21.41

CCCCCCCCC [nonane] + C1C[C@@H]2[C@H]3CC[C@H](C3)[C@@H]2C1
[3], Capillary rise
Conditions	surface tension liquid-gas [mN/m]
293.15 K	22.2
303.15 K	21.41

Conditions	mass density, 293.15 K [kg/m3]	mass density, 298.15 K [kg/m3]	mass density, 303.15 K [kg/m3]	mass density, 313.15 K [kg/m3]	refractive index, 293.15 K	refractive index, 303.15 K	viscosity, 293.15 K [mPa·s]	viscosity, 298.15 K [mPa·s]	viscosity, 303.15 K [mPa·s]	viscosity, 313.15 K [mPa·s]
[3]	717.8	713.9	710	702.1	–	–	0.733	0.687	0.647	0.579
[4]	–	–	–	–	1.4048	1.4001	–	–	–	–

CCCCCCCCCCCCC [tridecane]
Conditions	mass density, [2] [kg/m3]	refractive index, [1]	surface tension liquid-gas, [2] [mN/m]	viscosity, [2] [mPa·s]
293.15 K	756.5	1.4253	24.79	1.894
298.15 K	752.9	–	–	1.726
303.15 K	749.3	1.4213	24.08	1.577
313.15 K	742.2	–	–	1.325

CCCCCCCCCCCCC [tridecane] + C1C[C@@H]2[C@H]3CC[C@H](C3)[C@@H]2C1
Conditions	mass density, [3] [kg/m3]	refractive index, [4]	surface tension liquid-gas, [3] [mN/m]	viscosity, [3] [mPa·s]
293.15 K	756.5	1.4253	24.79	1.894
298.15 K	752.9	–	–	1.726
303.15 K	749.3	1.4213	24.08	1.577
313.15 K	742.2	–	–	1.325

— the NIST ThermoML archive (doi:10.1021/je200757a)
